Results published in paper PMC5095700 (Biochemistry, 2016).

Target: T1, Glucosamine/glucosaminide N-acetyltransferase (GlmA) (Clostridium acetobutylicum, UniProt Q97ML2, Y297F)
T1 sequence (Q97ML2 1-320 Y297F): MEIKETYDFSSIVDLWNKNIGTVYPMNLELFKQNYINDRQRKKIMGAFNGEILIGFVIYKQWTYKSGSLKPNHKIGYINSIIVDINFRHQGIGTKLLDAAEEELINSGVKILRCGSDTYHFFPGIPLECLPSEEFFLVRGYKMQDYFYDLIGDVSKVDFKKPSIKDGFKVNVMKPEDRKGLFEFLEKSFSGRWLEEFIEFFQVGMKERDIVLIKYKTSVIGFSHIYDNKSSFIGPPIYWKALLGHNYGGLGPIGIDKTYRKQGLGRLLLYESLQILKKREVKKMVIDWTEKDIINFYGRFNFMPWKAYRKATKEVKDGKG
Test: X-ray crystal structure of Y297F variant
Type: binding

Structure (SMILES): CC(=O)SCCNC(=O)CCNC(=O)[C@H](O)C(C)(C)COP(=O)(O)OP(=O)(O)OC[C@H]1O[C@@H](n2cnc3c(N)ncnc32)[C@H](O)[C@@H]1OP(=O)(O)O [AcCoA, acetyl CoA]
- X-ray crystal structure of Y297F variant (1.8 Å): electron density was clearly visible for the acetyl group of the cofactor bound in the C-terminal domain
